Entries after “also recorded” stand apart in the source; their conditions may differ.
Tested on: Pneumocystis carinii
Test: Treatment of Pneumocystis carinii pneumonia in Sprague-Dawley rats (extent of disease by histologic score)
Type: in vivo, male Sprague-Dawley rats
Settings: for Extent of Disease by Histologic Score: number of animals with score 0.5 / Extent of disease by histologic score (combined): number of animals in scoring group 0.5: 0.5 = <10 cysts found per 2 sections; for Extent of Disease by Histologic Score: number of animals with score 1 / Extent of disease by histologic score (combined): number of animals in scoring group 1: 1 = scattered cysts, <5% of lung involved; for Extent of Disease by Histologic Score: number of animals with score 2 / Extent of disease by histologic score (combined): number of animals in scoring group 2: 2 = scattered cysts; for Extent of Disease by Histologic Score: number of animals with score 2: 5-10% lung involved or small foci of infection; for Extent of Disease by Histologic Score: number of animals with score 3 / Extent of disease by histologic score (combined): number of animals in scoring group 3: 3 = scattered cysts; for Extent of disease by histologic score (combined): number of animals in scoring group 0.5 / Extent of disease by histologic score (combined): number of animals in scoring group 1 / Extent of disease by histologic score (combined): number of animals in scoring group 2 / Extent of disease by histologic score (combined): number of animals in scoring group 3 / Extent of disease by histologic score (combined): number of animals in scoring group 4: Table XII composite, 10 mg/kg; for Extent of disease by histologic score (combined): number of animals in scoring group 2: 5-10% of lung involved
Description: Induction and Treatment Of Pneumocystis Carinii in Sprague-Dawley Rats
Male Sprague-Dawley rats, barrier raised, non-certified virus free, weighing 150-200g were obtained from Hilltop Laboratories and housed individually. Animals were begun on a low (8%) protein diet (ICN Biomedicals, Cincinnati, OH) and drinking water containing tetracycline (0.5 mg/ml) and dexamethasone (1.0 μg/ml) immediately upon arrival. This treatment was given for the next 8 weeks, monitoring fluid intake daily and weighing animals weekly. Dilutions of the drinking solution were made when animals consumed too much fluid so as to prevent cortisone poisoning. At the beginning of the sixth week, animals were divided into groups of 8 animals each and the test compounds were administered daily by i.v. injection at a dose of 10 mg/kg, unless otherwise noted, for the next 14 days.
Animals were sacrificed at the end of the eighth week by chloroform inhalation and the left lung was removed aseptically and placed in sterile Hank's balanced salts solution without calcium or magnesium (HBSS-) for the ground tissue procedure. The right lung was inflated in situ with 10% […] and removed for histologic examination GMS staining. […]

[1] = 10 mg/kg i.v. daily, 14 days, 10-50% of lung involved with some intense areas of infection
[2] = 10 mg/kg i.v. daily, 14 days, 4 = >50% of lung involved with many intense areas of focal infection
[3] = 10 mg/kg unless otherwise noted

Row | Compound | Extent of Disease by Histologic Score: number of animals with score 0.5 (10 mg/kg i.v. daily, 14 days) | Extent of Disease by Histologic Score: number of animals with score 1 (10 mg/kg i.v. daily, 14 days) | Extent of Disease by Histologic Score: number of animals with score 2 (10 mg/kg i.v. daily, 14 days) | Extent of Disease by Histologic Score: number of animals with score 3 [1] | Extent of Disease by Histologic Score: number of animals with score 4 [2] | Efficacy in treating PCP compared with control [3] | Efficacy in treating PCP compared with pentamidine [3] | Extent of disease by histologic score (combined): number of animals in scoring group 0.5 | Extent of disease by histologic score (combined): number of animals in scoring group 1 | Extent of disease by histologic score (combined): number of animals in scoring group 2 | Extent of disease by histologic score (combined): number of animals in scoring group 3 (10-50% of lung involved) | Extent of disease by histologic score (combined): number of animals in scoring group 4 (4 = >50% of lung involved) | further results
1 | N=C(N)c1ccc(OCCOc2ccc(C(=N)N)cc2N)c(N)c1 [Example 3] | 4 animals | 4 animals | 0 animals | 0 animals | 0 animals | significantly better than the control | approximately comparable to pentamidine in efficacy | 4 animals | 4 animals | 0 animals | 0 animals | 0 animals | 
2 | N=C(N)c1ccc(OCCCOc2ccc(C(=N)N)cc2)cc1 [Example 4] | 3 animals | 4 animals | 1 animals | 0 animals | 0 animals |  | better at controlling the extent of the pcp infection than either para- or meta- pentamidine | 3 animals | 4 animals | 1 animals | 0 animals | 0 animals | 
3 | N=C(N)c1ccc(OCCCOc2ccc(C(=N)N)cc2N)c(N)c1 [Example 5] | 2 animals | 4 animals | 1 animals | 0 animals | 0 animals | significantly better than the control | approximately comparable to pentamidine in efficacy | 2 animals | 4 animals | 1 animals | 0 animals | 0 animals | 
4 | N=C(N)c1ccc(NCCCNc2ccc(C(=N)N)cc2)cc1 [Example 7] | 5 animals | 1 animals | 2 animals | 0 animals | 0 animals |  | better than or equal to pentamidine | 5 animals | 1 animals | 2 animals | 0 animals | 0 animals | Efficacy in treating PCP compared with related compounds of the series (effect of chain length or substituent): most effective
5 | N=C(N)c1ccc(OCCCCOc2ccc(C(=N)N)cc2)cc1 [Example 9, butamidine] |  |  | 0 animals | 0 animals | 0 animals |  | significantly better than pentamidine in controlling pcp; also recorded: significantly better than pentamidine at the 10 mg/kg dosage level | 8 animals | 0 animals | 0 animals | 0 animals | 0 animals | Extent of Disease by Histologic Score: number of animals with score 0.5 (0.1 mg/kg): 0 animals; Extent of Disease by Histologic Score: number of animals with score 1 (0.1 mg/kg): 0 animals; Extent of Disease by Histologic Score: number of animals with score 2 (0.1 mg/kg): 4 animals; Extent of Disease by Histologic Score: number of animals with score 3 (0.1 mg/kg, 10-50% of lung involved): 5 animals; Extent of Disease by Histologic Score: number of animals with score 4 (0.1 mg/kg, 4 = >50% of lung involved): 2 animals; Efficacy in treating PCP compared with pentamidine (1 mg/kg or 0.1 mg/kg): essentially no difference in the two compounds; Extent of Disease by Histologic Score: number of animals with score 0.5 (1 mg/kg): 0 animals; Extent of Disease by Histologic Score: number of animals with score 1 (1 mg/kg): 1 animals; Extent of Disease by Histologic Score: number of animals with score 2 (1 mg/kg): 3 animals; Extent of Disease by Histologic Score: number of animals with score 3 (1 mg/kg, 10-50% of lung involved): 5 animals; Extent of Disease by Histologic Score: number of animals with score 4 (1 mg/kg, 4 = >50% of lung involved): 3 animals
6 | N=C(N)c1ccc(OCCCCOc2ccc(C(=N)N)cc2N)c(N)c1 [Example 10] | 2 animals | 5 animals | 1 animals | 0 animals | 0 animals | significantly better than the control | approximately comparable to pentamidine in efficacy | 2 animals | 5 animals | 1 animals | 0 animals | 0 animals | 
7 | N=C(N)c1ccc(OCCCCCOc2ccc(C(=N)N)cc2N)c(N)c1 [Example 14] |  |  |  |  | 0 animals | significantly better than the control | improved performance in treating pcp; also recorded: approximately comparable to pentamidine in efficacy | 8 animals | 5 animals | 1 animals | 1 animals | 0 animals | 

— patent publication US4933347A, “Diamidines and bis(imidazolines) for the treatment of and prophylaxis against pneumocystis carinii pneumonia” (University of North Carolina at Chapel Hill, priority 1988, dated 1990)
